How the values were obtained:
Type in all cases: in vivo, C57BL/6J male mice
[1] = Weight change of naive HFD-consuming mice upon metabolite administration; settings: naive HFD-consuming 10-week-old C57bl male mice
From the text: Mice. Eight-weeks old C57BL/6J male mice were purchased from Harlan. All mice were maintained in the animal facility of the Weizmann Institute and acclimatized for two weeks before the initiation of experiments. Mice were fed on normal chow (NC) or switched to a high-fat diet (HFD, D12492, 60% kcal from fat, Research Diets)/ choline-deficient diet (CDD, rodent diet with 60 kcal % fat without added Choline) three days prior to the experimental starting point. […] For all experiments, the mice were assigned to each group based on their weight in order to create weight-matched groups and eliminate weight differences at the beginning of the experiments. […] Lean and fat mass was determined by nuclear magnetic resonance (NMR) using Bruker minispec LF50.mq7.5 MHZ live mice analyzer.
(§1) Data extraction and compound identification- raw data was extracted, peak-identified and QC processed using Metabolon's hardware and software. […] The cut was then closed with sterile surgical clips and the mice were carefully monitored for any signs of stress, bleeding, pain, or abnormal behavior. […]
Importantly, the predicted levels of biosynthetic enzymes (PICRUSTt2, P542-PWY) of the choline to betaine pathway and the pathway's measured intermediary levels (Choline to Betaine) were altered in actively smoking mice (FIG. 1D). […]

[2] = Smoking cessation-associated weight gain (SCWG) model in mice
From the text: Mice. Eight-weeks old C57BL/6J male mice were purchased from Harlan. All mice were maintained in the animal facility of the Weizmann Institute and acclimatized for two weeks before the initiation of experiments. Mice were fed on normal chow (NC) or switched to a high-fat diet (HFD, D12492, 60% kcal from fat, Research Diets)/ choline-deficient diet (CDD, rodent diet with 60 kcal % fat without added Choline) three days prior to the experimental starting point. […] For all experiments, the mice were assigned to each group based on their weight in order to create weight-matched groups and eliminate weight differences at the beginning of the experiments. Two weeks before experimental starting point, antibiotic-treated groups were given a combination of vancomycin (0.5 g/l), ampicillin (1 g/l), neomycin (1 g/l), and metronidazole (1 g/l) ad libitum in their drinking water, referred to as 4-way abx. […] Lean and fat mass was determined by nuclear magnetic resonance (NMR) using Bruker minispec LF50.mq7.5 MHZ live mice analyzer.
Cigarette Smoke Exposure. […] Smoke levels were measured at least twice daily. […]
as §1

[3] = Bomb calorimetry of stool (residual caloric content); settings: three weeks into DMG or PBS administration; inversely correlates with intestinal energy harvest
Procedure: Bomb calorimetry. Mice were transferred to a clean single housed cage, fecal samples collected and stored at −80° C. Before use, samples were dried with FreeZone 4.5-liter cascade benchtop freeze dry system (Labconco) for 24 hours. Gross energy content was measured using a water handling system (6510) and a bomb calorimeter (6200) by Parr Instrument Co. The calorimeter energy equivalent factor was determined using benzoic acid standards.

In the case of `CC(=O)NCC(=O)O` [ACG, N-acetylglycine], the “Weight gain under ACG consumption” value ([1]; 7500 mg N-Acetylglycine/kg diet, vs HFD-fed control) is reported as “significantly lower weight gain” and the “SCWG upon ACG supplementation” value ([2]; non-antibiotics-treated smoking-cessation mice, HFD-ACG vs HFD) is reported as “prevented SCWG”.

For `CN(C)CC(=O)O` [DMG, N,N-Dimethylglycine], the “Weight change upon DMG administration” value ([1]; osmotic pumps, 100 mg/kg/day, 21 days, vs vehicle (PBS)) was “significant weight gain”, the “Residual caloric content in stool” value [3] was “lower residual calories” and the “SCWG upon DMG supplementation” value ([2]; antibiotics-treated smoking-cessation HFD-fed mice, DMG via osmotic pumps started prior to cessation, vs vehicle) was “restored SCWG”.

— patent US20230330051A1, “METHOD FOR MODULATING WEIGHT” (Yeda Research and Development Co. Ltd., priority 2020, published 2023)
